Measured values reported in PubChem BioAssay AID256 (DTP/NCI, 2004).
“And” between values parts separate entries of the source, which are not always exact repeats. Equal entries are not always repeated. Inconclusive results and toxic doses are left out. How the source made its calls: active means survival T/C of 150% or more; inactive means T/C below 125% in these data.

System: CD2F1 mice, L1210 leukemia ip, survival T/C
Experiment: NCI In Vivo Anticancer Drug Screen. Data for tumor model L1210 Leukemia (intraperitoneal) in CD2F1 (CDF1) mice
Conditions: higher = longer survival
In short: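 Vehicle-treated tumor-bearing mice served as controls (C) for compound-treated mice (T). Reported figure is T divided by C.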

[1] = endpoint: mean survival time, dose: 100.0 mg/kg/injection, schedule: Q04DX002 (ip), vehicle: saline with Tween-80
[2] = endpoint: mean survival time, dose: 200.0 mg/kg/injection, schedule: Q04DX002 (ip), vehicle: saline with Tween-80
[3] = endpoint: mean survival time, dose: 400.0 mg/kg/injection, schedule: Q04DX002 (ip), vehicle: saline with Tween-80
[4] = endpoint: mean survival time, dose: 100.0 mg/kg/injection, schedule: Q01DX001 (ip), vehicle: saline with Tween-80
[5] = endpoint: mean survival time, dose: 200.0 mg/kg/injection, schedule: Q01DX001 (ip), vehicle: saline with Tween-80
[6] = endpoint: mean survival time, dose: 400.0 mg/kg/injection, schedule: Q01DX001 (ip), vehicle: saline with Tween-80
[7] = endpoint: mean survival time, dose: 50.0 mg/kg/injection, schedule: Q01DX009 (ip), vehicle: saline with Tween-80
[8] = endpoint: mean survival time, dose: 100.0 mg/kg/injection, schedule: Q01DX009 (ip), vehicle: saline with Tween-80
[9] = endpoint: mean survival time, dose: 100.0 mg/kg/injection, schedule: Q04DX003 (ip), vehicle: saline with Tween-80
[10] = endpoint: mean survival time, dose: 200.0 mg/kg/injection, schedule: Q04DX003 (ip), vehicle: saline with Tween-80
[11] = endpoint: mean survival time, dose: 12.5 mg/kg/injection, schedule: Q01DX009 (ip), vehicle: saline with Tween-80
[12] = endpoint: mean survival time, dose: 25.0 mg/kg/injection, schedule: Q01DX009 (ip), vehicle: saline with Tween-80
[13] = endpoint: mean survival time, dose: 400.0 mg/kg/injection, schedule: Q04DX003 (ip), vehicle: saline with Tween-80
[14] = endpoint: mean survival time, dose: 100.0 mg/kg/injection, schedule: Q04DX002 (ip), vehicle: saline
[15] = endpoint: mean survival time, dose: 200.0 mg/kg/injection, schedule: Q04DX002 (ip), vehicle: saline
[16] = endpoint: mean survival time, dose: 400.0 mg/kg/injection, schedule: Q04DX002 (ip), vehicle: saline
[17] = endpoint: mean survival time, dose: 100.0 mg/kg/injection, schedule: Q04DX003 (ip), vehicle: saline
[18] = endpoint: mean survival time, dose: 200.0 mg/kg/injection, schedule: Q04DX003 (ip), vehicle: saline

Measured: T/C

CCCCCCCCCCCCCC[N+]1(CC)CCCCC1
inactive: endpoint: mean survival time, dose: 0.12 mg/kg/injection, schedule: Q01DX009 (ip), vehicle: saline 100 % of control | endpoint: mean survival time, dose: 0.39 mg/kg/injection, schedule: Q01DX009 (ip), vehicle: saline 103 % of control | endpoint: mean survival time, dose: 0.78 mg/kg/injection, schedule: Q01DX009 (ip), vehicle: saline 106 % of control | endpoint: mean survival time, dose: 1.56 mg/kg/injection, schedule: Q01DX009 (ip), vehicle: saline 97 % of control

CN(C)C(=S)Oc1ccc(S(=O)(=O)F)cc1F
inactive: [1] 93 % of control | [2] 93 % of control | [3] 104 % of control

O=[N+]([O-])c1ccc(N/N=C(\CCl)c2ccccc2)c([N+](=O)[O-])c1
inactive: [4] 92 % of control | [5] 97 % of control | [6] 92 % of control

N#CC(C(=O)O)C1CCCCC1=O (stereo not given)
inactive: endpoint: median survival time, dose: 50.0 mg/kg/injection, schedule: Q04DX002 (ip), vehicle: saline with Tween-80 100 % of control | endpoint: median survival time, dose: 100.0 mg/kg/injection, schedule: Q04DX002 (ip), vehicle: saline with Tween-80 100 % of control | endpoint: median survival time, dose: 200.0 mg/kg/injection, schedule: Q04DX002 (ip), vehicle: saline with Tween-80 100 % of control

CS(=O)(=O)c1cnccn1
inactive: endpoint: mean survival time, dose: 100.0 mg/kg/injection, schedule: Q04DX003 (ip), vehicle: saline sonified 93 % of control | endpoint: mean survival time, dose: 200.0 mg/kg/injection, schedule: Q04DX003 (ip), vehicle: saline sonified 95 % of control | endpoint: mean survival time, dose: 400.0 mg/kg/injection, schedule: Q04DX003 (ip), vehicle: saline sonified 96 % of control

O=C1C=C(c2ccccc2)CC1
inactive: [7] 104 % of control | [8] 93 % of control | [9] 101 % of control | [10] 100 % of control

N#CC(C#N)=C(C#N)c1ccccc1
inactive: [11] 96 % of control | [12] 98 % of control | endpoint: mean survival time, dose: 50.0 mg/kg/injection, schedule: Q01DX001 (ip), vehicle: saline with Tween-80 94 % of control | [7] 94 % of control

O=C1CC(c2ccccc2)CC(=O)O1
inactive: [9] 102 % of control | [10] 100 % of control | [13] 92 % of control

Cn1c(=O)c2c(nc(N3CCOCC3)n2CCCNCC(O)c2ccc(O)cc2)n(C)c1=O (stereo not given)
inactive: endpoint: mean survival time, dose: 12.5 mg/kg/injection, schedule: Q01DX005 (ip), vehicle: water 102 % of control | endpoint: mean survival time, dose: 25.0 mg/kg/injection, schedule: Q01DX005 (ip), vehicle: water 104 % of control | endpoint: mean survival time, dose: 50.0 mg/kg/injection, schedule: Q01DX005 (ip), vehicle: water 100 % of control | endpoint: mean survival time, dose: 100.0 mg/kg/injection, schedule: Q01DX005 (ip), vehicle: water 98 % of control | endpoint: mean survival time, dose: 200.0 mg/kg/injection, schedule: Q01DX005 (ip), vehicle: water 104 % of control

C=CC(NC(=O)CN)C(=O)O (stereo not given)
inactive: [4] 115 % of control | [14] 107 % of control | [5] 105 % of control | [15] 93 % of control | [6] 114 % of control | [16] 110 % of control

CN(CCN1CCCC1)C(=O)C(O)(c1ccccc1)c1ccccc1
inactive: [17] 96 % of control | [18] 93 % of control

CCOc1ccc(NC(=S)NC(=O)/C=C/c2ccccc2)cc1
inactive: [11] 93 % of control and 96 % of control | [4] 95 % of control | [1] 95 % of control and 98 % of control | [9] 93 % of control | [5] 100 % of control | [2] 94 % of control and 97 % of control | [10] 96 % of control | [6] 93 % of control | endpoint: mean survival time, dose: 400.0 mg/kg/injection, schedule: Q01DX009 (ip), vehicle: saline with Tween-80 108 % of control and 111 % of control | [3] 94 % of control and 101 % of control | [13] 96 % of control

CC1=CC(=O)CC(C)C2CC(C(C)C)CC12 (stereo not given)
inactive: endpoint: mean survival time, dose: 100.0 mg/kg/injection, schedule: Q01DX001 (ip), vehicle: saline 101 % of control | endpoint: mean survival time, dose: 200.0 mg/kg/injection, schedule: Q01DX001 (ip), vehicle: saline 100 % of control | endpoint: mean survival time, dose: 400.0 mg/kg/injection, schedule: Q01DX001 (ip), vehicle: saline 105 % of control

CSCCSC
inactive: [4] 104 % of control | [5] 98 % of control | [6] 96 % of control

O=C1OC2CC1(O)CC(O)C2O (stereo not given)
inactive: [4] 96 % of control | [5] 89 % of control

COC1OC(C)CC(C)(C)O1 (stereo not given)
inactive: [14] 89 % of control | [15] 96 % of control | [16] 100 % of control

CC(=O)Nc1cccc(OCCCOc2cccc([N+](=O)[O-])c2)c1
inactive: [9] 95 % of control | [10] 95 % of control | [13] 92 % of control

CC(C)(C)c1ccc(OCC(=O)O)cc1
inactive: endpoint: mean survival time, dose: 100.0 mg/kg/injection, schedule: Q04DX003 (ip), vehicle: other 100 % of control | endpoint: mean survival time, dose: 200.0 mg/kg/injection, schedule: Q04DX003 (ip), vehicle: other 101 % of control

CC(=O)NC(CC(C)C)C(=O)O.CC(=O)NC(CC(C)C)C(=O)O.[NH-]C1CCCCC1[NH-].[Pt+2] (stereo not given)
inactive: endpoint: median survival time, dose: 3.12 mg/kg/injection, schedule: Q04DX003 (ip), vehicle: saline 97 % of control | endpoint: median survival time, dose: 6.25 mg/kg/injection, schedule: Q04DX003 (ip), vehicle: saline 100 % of control | endpoint: median survival time, dose: 12.5 mg/kg/injection, schedule: Q04DX003 (ip), vehicle: saline 97 % of control | endpoint: median survival time, dose: 25.0 mg/kg/injection, schedule: Q04DX003 (ip), vehicle: saline 100 % of control | endpoint: median survival time, dose: 50.0 mg/kg/injection, schedule: Q04DX003 (ip), vehicle: saline 104 % of control | endpoint: median survival time, dose: 100.0 mg/kg/injection, schedule: Q04DX003 (ip), vehicle: saline 105 % of control | endpoint: median survival time, dose: 200.0 mg/kg/injection, schedule: Q04DX003 (ip), vehicle: saline 108 % of control

Cc1ccc(C(C)C)c(OCC2=NCCN2C)c1
inactive: [17] 106 % of control | [18] 106 % of control

CNCCOC(=O)/C=C/c1ccccc1
inactive: endpoint: mean survival time, dose: 100.0 mg/kg/injection, schedule: Q01DX009 (ip), vehicle: saline 98 % of control | endpoint: mean survival time, dose: 200.0 mg/kg/injection, schedule: Q01DX009 (ip), vehicle: saline 95 % of control | endpoint: mean survival time, dose: 400.0 mg/kg/injection, schedule: Q01DX009 (ip), vehicle: saline 95 % of control

COC(=O)C(Br)CCC(Br)C(=O)OC (stereo not given)
inactive: endpoint: mean survival time, dose: 50.0 mg/kg/injection, schedule: Q04DX003 (ip), vehicle: saline with Tween-80 94 % of control | [8] 95 % of control | [9] 94 % of control | endpoint: mean survival time, dose: 200.0 mg/kg/injection, schedule: Q01DX009 (ip), vehicle: saline with Tween-80 103 % of control | [10] 94 % of control

NC(C(=O)O)C(O)C(=O)O (stereo not given)
inactive: endpoint: mean survival time, dose: 37.5 mg/kg/injection, schedule: Q01DX009 (ip), vehicle: saline 101 % of control | endpoint: mean survival time, dose: 75.0 mg/kg/injection, schedule: Q01DX009 (ip), vehicle: saline 97 % of control | endpoint: mean survival time, dose: 150.0 mg/kg/injection, schedule: Q01DX009 (ip), vehicle: saline 98 % of control

COc1cc(/C=C/C=C/C(=O)N2CCCCC2)ccc1O
inactive: [11] 97 % of control | [12] 100 % of control | [7] 113 % of control

Cc1cccn(O)c1=NC(=O)c1ccccc1
inactive: [9] 95 % of control | [10] 105 % of control | [13] 86 % of control

NCCS/C=C/C(=O)Oc1ccc(Br)cc1
inactive: [9] 103 % of control | [10] 96 % of control
